Structures are written as SMILES.

For the experiment, the target named is T1, human CXCR2 (Homo sapiens, UniProt P25025).
T1 construct: expressed in transfected cells; host or cells: CHO-K1
T1 sequence (P25025 1-360): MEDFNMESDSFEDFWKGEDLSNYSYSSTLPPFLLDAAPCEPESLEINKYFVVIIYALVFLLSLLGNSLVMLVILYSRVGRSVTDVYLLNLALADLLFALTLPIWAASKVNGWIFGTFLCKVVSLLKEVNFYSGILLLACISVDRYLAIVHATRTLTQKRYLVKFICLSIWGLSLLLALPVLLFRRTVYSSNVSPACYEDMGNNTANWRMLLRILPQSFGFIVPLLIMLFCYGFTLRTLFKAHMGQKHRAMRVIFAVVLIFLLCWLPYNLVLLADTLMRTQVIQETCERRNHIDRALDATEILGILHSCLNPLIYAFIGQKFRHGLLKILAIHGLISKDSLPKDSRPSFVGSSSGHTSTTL
In words: CXCR2 inhibition: calcium fluorescence assay (FLIPR). In kind it is cell-based. The note with it: CHO-K1 cells stably transfected with human CXCR2 and Gα16; Fluo-4; % inhibition of calcium response to chemokine (10-100 nM). An excerpt:
Determination of CXCR2 Inhibition: Calcium Fluorescence Assay (FLIPR)
The assay is based on the detection of intracellular calcium changes detected by the selective, calcium-chelating dye, Fluo-4 (Molecular Probes). A large fluorescence intensity increase is observed upon calcium association with Fluo-4. The dye is delivered to the cell interior using an acetoxymethylester form of Fluo-4, where the intracellular esterase activity results in the charged species being released and trapped within the cytoplasm of the cell. […] By co-expressing the CXCR2 receptor and the promiscuous Gα16 protein, activation of this chemokine receptor is directed into this phospholipase C cascade resulting in intracellular calcium mobilization.
The CHO—K1 cells stably transfected with human CXCR2 and the promiscuous Gα16 protein were maintained in a log phase of growth at 37° C. and 5% CO2 in the following media: Iscove's, 10% FBS, 1× Penicillin-Streptomycin, 400 μg/mL G418 and 350 μg/mL Zeocin. Approximately 24-48 hours prior to the assay, 20,000-30,000 cells/well were plated onto a 96-well black/clear bottomed assay plate (Becton Dickinson) with a well volume of 180 μl. For dye-loading the culture medium was carefully removed and replaced by 100 μl/well dye solution (4 μM Fluo-4 in 135 mM NaCl, 5 mM KCl, 1 mM magnesium sulphate, 5 mM glucose, 20 mM Hepes, 2.5 mM probenecid; pH 7.4). Cells were incubated for 1 h at 37° C., and then washed 3× with buffer. After washing 90 μl buffer/well were left. Increasing concentrations of compound was added in 45 μl buffer (4× concentrated) followed by 10 min incubation at 37° C. Then the chemokine (10-100 nM) was applied in 45 μl buffer (4× concentrated) and the measurement performed for 2 min. The IC50 value of a compound was determined by calculation of % inhibition of total calcium response to the chemokine.
Take `CC(C)(NC(=O)c1ccc2ccccc2c1OCc1ccc2nonc2c1)C(=O)O` [Example 5, 2-{[1-(Benzo[1,2,5]oxadiazol-5-ylmethoxy)-naphthalene-2-carbonyl]-amino}-2-methyl-propionic acid]: the IC50 is 3.21 µM.
For the compound `CC(C)(NC(=O)c1cc(Br)c2ccccc2c1OCc1ccc(OC(F)(F)F)cc1)C(=O)O` [Example 42, 2-{[4-Bromo-1-(4-trifluoromethoxy-benzyloxy)-naphthalene-2-carbonyl]-amino}-2-methyl-propionic acid], the IC50 amounted to 0.972 µM.
As for `CCC(C)(NC(=O)c1ccc2ccccc2c1OCc1cc2ccccc2s1)C(=O)O` (centres unmarked) [Example 74, 2-{[1-(Benzo[b]thiophen-2-ylmethoxy)-naphthalene-2-carbonyl]-amino}-2-methyl-butyric acid], the IC50 amounted to 0.98 µM.
Consider `CCC(C)(NC(=O)c1ccc2ccccc2c1OCc1ccc(OC(F)(F)F)c(Cl)c1)C(=O)O` (centres unmarked) [Example 105, 2-{[1-(3-Chloro-4-trifluoromethoxy-benzyloxy)-naphthalene-2-carbonyl]-amino}-2-methyl-butyric acid], for which the IC50 came out at 1.62 µM.
Under `CC(NC(=O)c1ccc2ccccc2c1OCc1ccc(C(F)(F)F)cc1)C(=O)O` (centres unmarked) [Example 110, 2-{[1-(4-Trifluoromethyl-benzyloxy)-naphthalene-2-carbonyl]-amino}-propionic acid] stands 0.7 µM.
As for `CC(C)(NC(=O)c1sc2ccccc2c1OCc1ccc(C(F)(F)F)nc1)C(=O)O` [Example 120, 2-Methyl-2-{[3-(6-trifluoromethyl-pyridin-3-ylmethoxy)-benzo[b]thiophene-2-carbonyl]-amino}-propionic acid], the concentration for half-maximal inhibition (IC50) was found to be 4.45 µM.
In the case of `O=C(NC1(C(=O)O)CCCC1)c1ccc2ccccc2c1OCc1ccc(C(F)(F)F)cc1` [Example 127, 1-{[1-(4-Trifluoromethyl-benzyloxy)-naphthalene-2-carbonyl]-amino}-cyclopentanecarboxylic acid], the IC50 came out at 0.996 µM.
`CC(C)C(C)(NC(=O)c1sc2ccccc2c1OCc1ccc(C(F)(F)F)cc1)C(=O)O` (centres unmarked) [Example 131, 2,3-Dimethyl-2-{[3-(4-trifluoromethyl-benzyloxy)-benzo[b]thiophene-2-carbonyl]-amino}-butyric acid]: the IC50 was determined as 0.2 µM.
